1 molecule from ChEMBL document CHEMBL6178014, “Discovery and Administration Optimization of Novel Selective CDK9 Inhibitor, 1-7a-B1, for Improved Pharmacokinetics and Antitumor Efficacy In Vivo” (J Med Chem, 2025) can be followed below.

pKd: −log10 of the molar value. Calls of active or inactive are those of the source. The rule behind the calls is not given here.

In one data set the target is CDK9/cyclin T1 (Homo sapiens, UniProt P50750). Nature of the data set: Binding affinity to CDK9/cyclin T1 (unknown origin) assessed as dissociation constant by SPR analysis. The format is protein-complex assay. Background: In SPR one partner is held on a chip, and binding of the other changes the refractive index at the surface.
Sequence of CDK9/cyclin T1 (O60563 whole entry): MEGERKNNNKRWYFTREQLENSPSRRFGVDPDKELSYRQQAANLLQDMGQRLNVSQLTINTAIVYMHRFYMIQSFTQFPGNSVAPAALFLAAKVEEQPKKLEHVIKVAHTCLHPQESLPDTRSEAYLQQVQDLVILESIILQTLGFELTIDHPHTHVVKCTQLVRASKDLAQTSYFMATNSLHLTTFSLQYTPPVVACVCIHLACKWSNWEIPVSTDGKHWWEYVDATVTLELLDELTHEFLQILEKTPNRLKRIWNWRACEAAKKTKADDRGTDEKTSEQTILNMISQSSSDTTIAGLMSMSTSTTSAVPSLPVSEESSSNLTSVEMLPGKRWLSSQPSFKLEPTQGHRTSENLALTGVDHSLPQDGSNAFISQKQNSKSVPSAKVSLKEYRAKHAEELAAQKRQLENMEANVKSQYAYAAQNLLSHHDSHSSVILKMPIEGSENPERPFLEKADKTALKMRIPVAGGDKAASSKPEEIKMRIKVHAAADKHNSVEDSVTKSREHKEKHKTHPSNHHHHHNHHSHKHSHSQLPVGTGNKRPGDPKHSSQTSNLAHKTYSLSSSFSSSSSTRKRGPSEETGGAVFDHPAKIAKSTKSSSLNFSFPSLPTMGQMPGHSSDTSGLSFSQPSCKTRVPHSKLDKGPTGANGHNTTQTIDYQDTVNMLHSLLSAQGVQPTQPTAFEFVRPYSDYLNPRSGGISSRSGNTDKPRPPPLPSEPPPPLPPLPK
Sequence of CDK9/cyclin T1 (P50750 whole entry): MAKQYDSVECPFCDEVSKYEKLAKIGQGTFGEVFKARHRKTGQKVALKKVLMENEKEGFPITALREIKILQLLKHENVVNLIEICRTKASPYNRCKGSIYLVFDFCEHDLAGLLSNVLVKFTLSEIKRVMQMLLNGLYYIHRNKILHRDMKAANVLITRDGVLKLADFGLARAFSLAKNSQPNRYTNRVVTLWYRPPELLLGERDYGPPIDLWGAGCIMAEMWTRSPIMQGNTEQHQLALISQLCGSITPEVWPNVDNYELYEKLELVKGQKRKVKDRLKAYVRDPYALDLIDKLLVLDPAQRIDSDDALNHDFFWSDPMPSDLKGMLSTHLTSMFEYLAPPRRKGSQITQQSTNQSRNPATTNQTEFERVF
Another data set has as its system HepG2. Nature of the data set: Cytotoxicity against human HepG2 cells assessed as cell viability incubated for 48 hrs by CCK8 assay. It counts as functional, cell-based. Background: Formazan colour is commonly taken as a measure of viable cells.
For data set [1], the system named is HCT-116. Nature of the data set: Antiproliferative activity against human HCT-116 cells assessed as reduction in colony formation incubated for 14 days by crystal violet staining based analysis. The format is functional, cell-based. The following applies: dose 50-400 nM, time 14.0 day.
The test system of data set [2] is HCT-116. Nature of the data set: Downregulation of c-Myc mRNA level in human HCT-116 cells at 200 to 400 nM incubated for 48 hrs by qRT-PCR analysis. The note with it: dose 200-400 nM. It counts as functional, cell-based. (In qPCR the cycle at which signal appears reflects the starting amount.)
The test system of data set [3] is HCT-116. Nature of the data set: Downregulation of Mcl-1 level in human HCT-116 cells at 200 to 400 nM incubated for 48 hrs by Western blot analysis. It counts as functional, cell-based. The following applies: dose 200-400 nM.
For data set [4], the system named is HCT-116. Nature of the data set: Downregulation of c-Myc level in human HCT-116 cells at 200 to 400 nM incubated for 48 hrs by Western blot analysis. The format is functional, cell-based. The following applies: dose 200-400 nM.
Data set [5] concerns HCT-116. Nature of the data set: Induction of apoptosis in human HCT-116 cells assessed as increase in caspase-3 cleavage incubated for 48 hrs by Western blot analysis. The format is functional, cell-based. The note with it: dose 100-400 nM.
Data set [6] has as its system HCT-116. Nature of the data set: Effect on MDM2 expression in human HCT-116 cells at 100 to 400 nM incubated for 48 hrs by Western blot analysis. The following applies: dose 100-400 nM. The format is functional, cell-based.
The nature of data set [7]: AUC (0 to infinity) in Sprague-Dawley rat at 2 mg/kg, iv measured after 24 hrs by LC-MS/MS analysis. The format is ADME, organism-based. The note with it: in vivo.
Data set [8] can be described thus: MRT (infinity) in Sprague-Dawley rat at 2 mg/kg, iv measured after 24 hrs by LC-MS/MS analysis. The following applies: in vivo. The format is ADME, organism-based.
Data set [9] in a line: Clearance in Sprague-Dawley rat at 2 mg/kg, iv measured after 24 hrs by LC-MS/MS analysis. The note with it: in vivo. It counts as ADME, organism-based.
The nature of data set [10]: Cmax in Sprague-Dawley rat at 30 mg/kg, po measured after 24 hrs by LC-MS/MS analysis. The format is ADME, organism-based. The note with it: in vivo.
A short description of data set [11]: Cmax in Sprague-Dawley rat at 30 mg/kg, po as submicron emulsion measured after 24 hrs by LC-MS/MS analysis. It counts as ADME, organism-based. The note with it: in vivo.
Data set [12] is described as follows: MRT (infinity) in Sprague-Dawley rat at 30 mg/kg, po as submicron emulsion measured after 24 hrs by LC-MS/MS analysis. It counts as ADME, organism-based. The note with it: in vivo.
The nature of data set [13]: AUC (0 to infinity) in Sprague-Dawley rat at 30 mg/kg, po as submicron emulsion measured after 24 hrs by LC-MS/MS analysis. The format is ADME, organism-based. The note with it: in vivo.
The nature of data set [14]: Volume of distribution in Sprague-Dawley rat at 30 mg/kg, po as submicron emulsion measured after 24 hrs by LC-MS/MS analysis. It counts as ADME, organism-based. The note with it: in vivo.
For data set [15], the system named is HCT-116. Nature of the data set: Antitumor activity against human HCT-116 cells xenografted in female BALB/c nu-nu mouse assessed as tumor growth inhibition at 40 mg/kg, po administered once daily for 3 weeks by vernier caliper analysis. It counts as functional, organism-based.
A short description of data set [16]: Toxicity in female BALB/c nu-nu mouse xenografted with human HCT-116 cells assessed as histopathological changes in heart at 20 mg/kg, po as submicron emulsion administered once daily for 3 weeks by H and E staining based analysis. It counts as organism-based. The note with it: in vivo, 504 h.
The nature of data set [17]: Toxicity in female BALB/c nu-nu mouse xenografted with human HCT-116 cells assessed as histopathological changes in liver at 20 mg/kg, po as submicron emulsion administered once daily for 3 weeks by H and E staining based analysis. It counts as organism-based. The note with it: in vivo, 504 h.
Data set [18] in a line: Toxicity in female BALB/c nu-nu mouse xenografted with human HCT-116 cells assessed as histopathological changes in lung at 20 mg/kg, po as submicron emulsion administered once daily for 3 weeks by H and E staining based analysis. The format is organism-based. The note with it: in vivo, 504 h.
Data set [19] relates to HCT-116. Nature of the data set: Antitumor activity against human HCT-116 cells xenografted in female BALB/c nu-nu mouse assessed as downregulation of c-Myc mRNA expression at 40 mg/kg, po incubated for 48 hrs by qRT-PCR analysis. The format is functional, organism-based.

Take `CC(C)Oc1cc(F)ccc1-c1ccnc(NC(=O)Nc2cccc(C(=O)N3CCN(C)CC3)c2)c1`: the negative logarithm of the Kd (pKd) at CDK9/cyclin T1 was 5.05. The result in the data set with HepG2, in the data set with HCT-116 [2], in the data set with HCT-116 [3], with HCT-116 [4], in the data set on HCT-116 [15] and in the data set with HCT-116 [19] was Active. Also, the Activity result was “Dose-dependent-effect” in the data set on HCT-116 [1]; “Dose-dependent-effect” in the data set with HCT-116 [5]; “Non-toxic” in data set [16]; “Non-toxic” in data set [17]; “Non-toxic” in data set [18]. In the data set with HCT-116 [6], the outcome was inactive. Besides, in data set [7], the total exposure AUC(0-inf) came out at 407 ng·h/mL. Also, the mean residence time MRT inf in [8] stood at 0.335 h; in data set [12] it was 2.08 h. For the same molecule, the clearance in [9] is 81.8 mL/min/kg. The Cmax stood at 302 ng/mL in data set [10] and 1020 ng/mL in data set [11]. The molecule also registered an AUC in [13] of 1611 ng·h/mL. In [14], this molecule registered a Vd of 6.52 L/kg.

By pKd is commonly meant −log10 of the Kd, conventionally taken in molar units. A word on the AUC(0-inf): it is the area under the concentration-time curve extrapolated to infinity. Higher therefore signals more exposure. Broadly, the MRT inf is the average time that molecules of a dose stay in the body. Broadly, the clearance is a measure of how efficiently the substance is removed, as volume per time. Low readings indicate inefficient removal, high ones efficient removal. The term Cmax denotes the maximum level reached in the sampled fluid or tissue. A word on the AUC: it is the area under the concentration-time curve, a measure of exposure. Read a high AUC as high exposure.
